How the values were obtained:
[1] = system: β-oxidation of fatty acids; assay: Measurement of β-oxidation: 3H-labeled palmitoyl-CoA oxidation in liver homogenates of treated ob/ob mice; format: in vivo, mouse; conditions: GSNO-injected ob/ob mice (i.p.)
Protocol: (1957) J. Biol. Chem., 226:497-509). The aqueous phase was collected, and proteins were precipitated by the addition of 10% TCA followed by centrifugation at 8000 g for 10 minutes at room temperature. Remaining radioactive palmitoyl-CoA was eliminated by strong anion exchange chromatography with AG 1-X8 formate resin (Life Science). The effluent containing the ^3H2O was collected and used for scintillation counting. Each experiment was coupled with a background measurement, a sample containing no protein. The background count number was subtracted from each measurement corresponding to analysis samples. Leptin-deficient mice develop liver steatosis spontaneously under normal chow diet starting at 4 to 5 weeks of life that is characterized by a diminished rate of palmitate oxidation and accumulation of fat droplets in the form of triglycerides within the hepatocytes (Brix et al. (2002) Mol. Genet. Metab., 75:219-226; de Oliveira et al. (2008) J. Am. Coll. Nutr., 27:299-305). […] This significant reduction in the rate of palmitoyl-CoA oxidation indicated a deficiency in mitochondrial β-oxidation of fatty acids. […]

wild-type VLCAD = biological target: T1, wild-type VLCAD (Mus musculus, UniProt P50544); assay: Hepa 1 to 6 cells expressing FLAG-tagged wild-type VLCAD exposed to GSNO; format: cell-based
T1 construct: 3xFLAG (C); host or cells: Hepa 1 to 6 cells
T1 sequence (P50544 42-656): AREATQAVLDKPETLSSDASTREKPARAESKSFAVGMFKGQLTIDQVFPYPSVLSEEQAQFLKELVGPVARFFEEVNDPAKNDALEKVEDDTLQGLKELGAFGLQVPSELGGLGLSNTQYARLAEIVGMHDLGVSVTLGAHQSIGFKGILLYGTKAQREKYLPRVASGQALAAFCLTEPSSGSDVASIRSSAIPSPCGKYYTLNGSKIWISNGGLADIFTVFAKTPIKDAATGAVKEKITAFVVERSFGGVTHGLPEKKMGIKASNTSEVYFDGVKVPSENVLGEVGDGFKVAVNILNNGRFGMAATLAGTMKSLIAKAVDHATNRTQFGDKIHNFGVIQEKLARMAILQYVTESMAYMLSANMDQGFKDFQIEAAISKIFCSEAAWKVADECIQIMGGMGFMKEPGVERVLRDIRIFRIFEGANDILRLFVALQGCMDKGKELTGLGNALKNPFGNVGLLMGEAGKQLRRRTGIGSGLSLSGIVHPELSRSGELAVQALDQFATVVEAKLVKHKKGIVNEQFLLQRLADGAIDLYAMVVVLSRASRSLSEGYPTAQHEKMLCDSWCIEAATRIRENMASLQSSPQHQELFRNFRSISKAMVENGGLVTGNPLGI
Protocol: Liver homogenate (final concentration of 0.03 μg/μl) or cell lysate (final concentration of 0.09 μg/μl) in 100 mM potassium phosphate buffer (pH 7.2) containing 0.2% Triton X-100 and 0.1 mM EDTA was mixed with […] ferricenium ion, and the reaction was initiated by the addition of palmitoyl-CoA (the final volume of the assay was 130 μl). […] At least nine concentrations of palmitoyl-CoA, ranging from 0.015 to 2 mM, were used for the experimental determination of the apparent Vmax and KM of VLCAD for each animal. […] A unit of enzyme activity is defined as the amount of enzyme that causes the reduction of […] of ferricenium per minute at room temperature (ε=4.3 mM^−1 cm^−1 at 300 nm) (Izai et al. (1992) J. Biol. Chem., 267:1027-1033). […] The measurement of specific activity of VLCAD in liver homogenates (FIG. 2H) and cell lysates (FIG. 4) was performed in the presence of 0.25 and 0.125 mM palmitoyl-CoA, respectively.
Hepa 1 to 6 cells were grown in Dulbecco's modified Eagle's medium (DMEM) containing 10% fetal bovine serum, 2 mM glutamine, penicillin (100 U/ml), and streptomycin ([…]) at 37° C. in air with 5% CO2. Cells were plated at a density of 5×10^4 cells/cm^2 and cultured under normal conditions for 24 hours. Cells were transfected with FLAG®-tagged wild-type VLCAD or FLAG®-tagged C238A VLCAD with Lipofectamine® 2000 reagent (Life Technologies) according to the protocol provided by the manufacturer. Forty-eight hours after transfection, the growth medium was replaced with serum-free DMEM, and […] freshly prepared GSNO was added for 30 minutes, after which the cells were extensively washed with PBS. Cell lysates were obtained immediately or 60, 120, and 240 minutes after the removal of GSNO. The samples were protected from UV light exposure. Lysates were assayed for protein concentration, and equal amounts of protein per sample were used for organic mercury-assisted capture.

VLCAD = biological target: T2, VLCAD (Mus musculus, UniProt P50544); assay: VLCAD activity assay (ferricenium) in liver homogenates from injected ob/ob mice
T2 sequence (P50544 42-656): T1 sequence (P50544 42-656)

[2] = 60, 120, 240 minutes after removal of GSNO and washing

Structure (SMILES): N[C@@H](CCC(=O)N[C@@H](CSN=O)C(=O)NCC(=O)O)C(=O)O [GSNO, S-nitrosoglutathione]
- palmitoyl-CoA oxidation rate compared with PBS-injected ob/ob mice [1]: significantly increased rate
- abundance of S-nitrosylated VLCAD after removal of GSNO (wild-type VLCAD; [2]): declined over time
- enzymatic-specific activity after removal of GSNO (wild-type VLCAD; [2]): declined over time
- VLCAD-specific activity (wild-type VLCAD; GSNO treatment, 0.125 mM palmitoyl-CoA): significantly higher
- acyl dehydrogenase-mediated oxidation of palmitoyl-CoA (VLCAD; GSNO-treated ob/ob mouse liver): increase
- apparent KM in PBS-injected ob/ob homogenates relative to wild-type and GSNO-injected ob/ob mice (VLCAD; liver homogenates): more than fivefold higher

Source: patent US10434079B2, “Compositions and methods for the treatment of fatty acid metabolism disorders” (The Children's Hospital of Philadelphia, priority 2013, dated 2019)
